In BindingDB's records for doi:10.1021/jm061152t (Abbott Laboratories, 2007):
“And” between values parts separate entries of the source, which are not always exact repeats. Equal values may be shown once.

Test: The binding affinities (Ki) of compounds were determined using fluorescence polarization assays (FPA) that measure their ability to competitively displace a Bad-derived peptide from Bcl-xL. Compound efficacy (EC50) in a cellular context was evaluated by testing their ability to reverse the protection from cytokine w
Conditions: not given

Compound	EC50
CN(C)CC[C@H](CSc1ccccc1)Nc1ccc(S(=O)(=O)NC(=O)c2ccc(N3CCN(C(=O)c4ccccc4)CC3)cc2)cc1[N+](=O)[O-] [4-(4-benzoylpiperazin-1-yl)-N-[(4-{[(2R)-4-(dimethylamino)-1-(phenylsulfanyl)butan-2-yl]amino}-3-nitrobenzene)sulfonyl]benzamide]	> 50000 nM
CN(C)CC[C@H](CSc1ccccc1)Nc1ccc(S(=O)(=O)NC(=O)c2ccc(N3CCN(Cc4ccccc4)CC3)cc2)cc1[N+](=O)[O-] [4-(4-benzylpiperazin-1-yl)-N-[(4-{[(2R)-4-(dimethylamino)-1-(phenylsulfanyl)butan-2-yl]amino}-3-nitrobenzene)sulfonyl]benzamide]	1700 nM
CN(C)CC[C@H](CSc1ccccc1)Nc1ccc(S(=O)(=O)NC(=O)c2ccc(N3CCN(Cc4ccccc4NC4CCCCC4)CC3)cc2)cc1[N+](=O)[O-] [4-(4-{[2-(cyclohexylamino)phenyl]methyl}piperazin-1-yl)-N-[(4-{[(2R)-4-(dimethylamino)-1-(phenylsulfanyl)butan-2-yl]amino}-3-nitrobenzene)sulfonyl]benzamide]	660 nM and 340 nM
CN(C)CC[C@H](CSc1ccccc1)Nc1ccc(S(=O)(=O)NC(=O)c2ccc(N3CCN(C(=O)Nc4ccccc4)CC3)cc2)cc1[N+](=O)[O-] [4-(4-{[(4-{[(2R)-4-(dimethylamino)-1-(phenylsulfanyl)butan-2-yl]amino}-3-nitrobenzene)sulfonyl]carbamoyl}phenyl)-N-phenylpiperazine-1-carboxamide]	> 50000 nM
CN(C)CC[C@H](CSc1ccccc1)Nc1ccc(S(=O)(=O)NC(=O)c2ccc(N3CCN(Cc4ccccc4C4CCCCC4)CC3)cc2)cc1[N+](=O)[O-] [4-{4-[(2-cyclohexylphenyl)methyl]piperazin-1-yl}-N-[(4-{[(2R)-4-(dimethylamino)-1-(phenylsulfanyl)butan-2-yl]amino}-3-nitrobenzene)sulfonyl]benzamide]	340 nM and 120 nM
CC1OC2(CCN(c3ccc(C(=O)NS(=O)(=O)c4ccc(N[C@H](CCN(C)C)CSc5ccccc5)c([N+](=O)[O-])c4)cc3)CC2)N(Cc2ccccc2)C1=O (stereo partly drawn) [4-{4-benzyl-2-methyl-3-oxo-1-oxa-4,8-diazaspiro[4.5]decan-8-yl}-N-[(4-{[(2R)-4-(dimethylamino)-1-(phenylsulfanyl)butan-2-yl]amino}-3-nitrobenzene)sulfonyl]benzamide]	> 50000 nM
CN(C)CC[C@H](CSc1ccccc1)Nc1ccc(S(=O)(=O)NC(=O)c2ccc(N3CCC(C)(C)CC3)cc2)cc1[N+](=O)[O-] [N-[(4-{[(2R)-4-(dimethylamino)-1-(phenylsulfanyl)butan-2-yl]amino}-3-nitrobenzene)sulfonyl]-4-(4,4-dimethylpiperidin-1-yl)benzamide]	2200 nM
COc1cccc(-c2ccccc2CN2CCN(c3ccc(C(=O)NS(=O)(=O)c4ccc(N[C@H](CCN(C)C)CSc5ccccc5)c([N+](=O)[O-])c4)cc3)CC2)c1 [N-[(4-{[(2R)-4-(dimethylamino)-1-(phenylsulfanyl)butan-2-yl]amino}-3-nitrobenzene)sulfonyl]-4-(4-{[2-(3-methoxyphenyl)phenyl]methyl}piperazin-1-yl)benzamide]	380 nM and 460 nM
CSc1ccccc1CN1CCN(c2ccc(C(=O)NS(=O)(=O)c3ccc(N[C@H](CCN(C)C)CSc4ccccc4)c([N+](=O)[O-])c3)cc2)CC1 [N-[(4-{[(2R)-4-(dimethylamino)-1-(phenylsulfanyl)butan-2-yl]amino}-3-nitrobenzene)sulfonyl]-4-(4-{[2-(methylsulfanyl)phenyl]methyl}piperazin-1-yl)benzamide]	95 nM and 130 nM
CN(C)CC[C@H](CSc1ccccc1)Nc1ccc(S(=O)(=O)NC(=O)c2ccc(N3CCN(Cc4ccccc4N4CCOCC4)CC3)cc2)cc1[N+](=O)[O-] [N-[(4-{[(2R)-4-(dimethylamino)-1-(phenylsulfanyl)butan-2-yl]amino}-3-nitrobenzene)sulfonyl]-4-(4-{[2-(morpholin-4-yl)phenyl]methyl}piperazin-1-yl)benzamide]	430 nM and 460 nM
CN(C)CC[C@H](CSc1ccccc1)Nc1ccc(S(=O)(=O)NC(=O)c2ccc(N3CCN(Cc4ccccc4C(F)(F)F)CC3)cc2)cc1[N+](=O)[O-] [N-[(4-{[(2R)-4-(dimethylamino)-1-(phenylsulfanyl)butan-2-yl]amino}-3-nitrobenzene)sulfonyl]-4-(4-{[2-(trifluoromethyl)phenyl]methyl}piperazin-1-yl)benzamide]	390 nM and 130 nM
CN(C)CC[C@H](CSc1ccccc1)Nc1ccc(S(=O)(=O)NC(=O)c2ccc(N3CCC(=Cc4ccccn4)CC3)cc2)cc1[N+](=O)[O-] [N-[(4-{[(2R)-4-(dimethylamino)-1-(phenylsulfanyl)butan-2-yl]amino}-3-nitrobenzene)sulfonyl]-4-[4-(pyridin-2-ylmethylidene)piperidin-1-yl]benzamide]	550 nM and 1380 nM
CN(C)CC[C@H](CSc1ccccc1)Nc1ccc(S(=O)(=O)NC(=O)c2ccc(N3CCC(=Cc4cccnc4)CC3)cc2)cc1[N+](=O)[O-] [N-[(4-{[(2R)-4-(dimethylamino)-1-(phenylsulfanyl)butan-2-yl]amino}-3-nitrobenzene)sulfonyl]-4-[4-(pyridin-3-ylmethylidene)piperidin-1-yl]benzamide]	1900 nM and 5300 nM
CN(C)CC[C@H](CSc1ccccc1)Nc1ccc(S(=O)(=O)NC(=O)c2ccc(N3CCN(Cc4ccccc4S(C)(=O)=O)CC3)cc2)cc1[N+](=O)[O-] [N-[(4-{[(2R)-4-(dimethylamino)-1-(phenylsulfanyl)butan-2-yl]amino}-3-nitrobenzene)sulfonyl]-4-{4-[(2-methanesulfonylphenyl)methyl]piperazin-1-yl}benzamide]	5500 nM and 6800 nM
COc1ccccc1CN1CCN(c2ccc(C(=O)NS(=O)(=O)c3ccc(N[C@H](CCN(C)C)CSc4ccccc4)c([N+](=O)[O-])c3)cc2)CC1 [N-[(4-{[(2R)-4-(dimethylamino)-1-(phenylsulfanyl)butan-2-yl]amino}-3-nitrobenzene)sulfonyl]-4-{4-[(2-methoxyphenyl)methyl]piperazin-1-yl}benzamide]	390 nM and 950 nM
Cc1ccccc1CN1CCN(c2ccc(C(=O)NS(=O)(=O)c3ccc(N[C@H](CCN(C)C)CSc4ccccc4)c([N+](=O)[O-])c3)cc2)CC1 [N-[(4-{[(2R)-4-(dimethylamino)-1-(phenylsulfanyl)butan-2-yl]amino}-3-nitrobenzene)sulfonyl]-4-{4-[(2-methylphenyl)methyl]piperazin-1-yl}benzamide]	410 nM and 940 nM

Continued, values first:

EC50	Compound
56 nM and 27 nM	CN(C)CC[C@H](CSc1ccccc1)Nc1ccc(S(=O)(=O)NC(=O)c2ccc(N3CCN(Cc4ccccc4-c4ccccc4Cl)CC3)cc2)cc1[N+](=O)[O-] [4-(4-{[2-(2-chlorophenyl)phenyl]methyl}piperazin-1-yl)-N-[(4-{[(2R)-4-(dimethylamino)-1-(phenylsulfanyl)butan-2-yl]amino}-3-nitrobenzene)sulfonyl]benzamide]
180 nM and 33 nM	CN(C)CC[C@H](CSc1ccccc1)Nc1ccc(S(=O)(=O)NC(=O)c2ccc(N3CCN(Cc4ccccc4-c4cccc(Cl)c4)CC3)cc2)cc1[N+](=O)[O-] [4-(4-{[2-(3-chlorophenyl)phenyl]methyl}piperazin-1-yl)-N-[(4-{[(2R)-4-(dimethylamino)-1-(phenylsulfanyl)butan-2-yl]amino}-3-nitrobenzene)sulfonyl]benzamide]
130 nM and 27 nM	CN(C)CC[C@H](CSc1ccccc1)Nc1ccc(S(=O)(=O)NC(=O)c2ccc(N3CCN(Cc4ccccc4-c4ccc(F)cc4)CC3)cc2)cc1[N+](=O)[O-] [N-[(4-{[(2R)-4-(dimethylamino)-1-(phenylsulfanyl)butan-2-yl]amino}-3-nitrobenzene)sulfonyl]-4-(4-{[2-(4-fluorophenyl)phenyl]methyl}piperazin-1-yl)benzamide]
30 nM and 25 nM	COc1ccc(-c2ccccc2CN2CCN(c3ccc(C(=O)NS(=O)(=O)c4ccc(N[C@H](CCN(C)C)CSc5ccccc5)c([N+](=O)[O-])c4)cc3)CC2)cc1 [N-[(4-{[(2R)-4-(dimethylamino)-1-(phenylsulfanyl)butan-2-yl]amino}-3-nitrobenzene)sulfonyl]-4-(4-{[2-(4-methoxyphenyl)phenyl]methyl}piperazin-1-yl)benzamide]
22 nM and 68 nM	CN(C)CC[C@H](CSc1ccccc1)Nc1ccc(S(=O)(=O)NC(=O)c2ccc(N3CCN(Cc4ccccc4-c4ccc(-c5ccccc5)cc4)CC3)cc2)cc1[N+](=O)[O-] [N-[(4-{[(2R)-4-(dimethylamino)-1-(phenylsulfanyl)butan-2-yl]amino}-3-nitrobenzene)sulfonyl]-4-(4-{[2-(4-phenylphenyl)phenyl]methyl}piperazin-1-yl)benzamide]
800 nM and 820 nM	CN(C)CC[C@H](CSc1ccccc1)Nc1ccc(S(=O)(=O)NC(=O)c2ccc(N3CCN(Cc4ccccc4-c4cccnc4)CC3)cc2)cc1[N+](=O)[O-] [N-[(4-{[(2R)-4-(dimethylamino)-1-(phenylsulfanyl)butan-2-yl]amino}-3-nitrobenzene)sulfonyl]-4-(4-{[2-(pyridin-3-yl)phenyl]methyl}piperazin-1-yl)benzamide]
40 nM and 13 nM	CN(C)CC[C@H](CSc1ccccc1)Nc1ccc(S(=O)(=O)NC(=O)c2ccc(N3CCN(Cc4ccccc4-c4ccc(C(F)(F)F)cc4)CC3)cc2)cc1[N+](=O)[O-] [N-[(4-{[(2R)-4-(dimethylamino)-1-(phenylsulfanyl)butan-2-yl]amino}-3-nitrobenzene)sulfonyl]-4-[4-({2-[4-(trifluoromethyl)phenyl]phenyl}methyl)piperazin-1-yl]benzamide]
18 nM and 16 nM	CN(C)CC[C@H](CSc1ccccc1)Nc1ccc(S(=O)(=O)NC(=O)c2ccc(N3CCN(Cc4ccccc4-c4ccccc4)CC3)cc2)cc1[N+](=O)[O-] [N-[(4-{[(2R)-4-(dimethylamino)-1-(phenylsulfanyl)butan-2-yl]amino}-3-nitrobenzene)sulfonyl]-4-{4-[(2-phenylphenyl)methyl]piperazin-1-yl}benzamide]

Same assay, conditions: pH 7.4

EC50 [nM]	Compound
14600	CN(C)CC[C@H](CSc1ccccc1)Nc1ccc(S(=O)(=O)NC(=O)c2ccc(N3CCN(C(=O)c4ccccc4)CC3)cc2)cc1[N+](=O)[O-] [4-(4-benzoylpiperazin-1-yl)-N-[(4-{[(2R)-4-(dimethylamino)-1-(phenylsulfanyl)butan-2-yl]amino}-3-nitrobenzene)sulfonyl]benzamide]
1100	CN(C)CC[C@H](CSc1ccccc1)Nc1ccc(S(=O)(=O)NC(=O)c2ccc(N3CCN(Cc4ccccc4)CC3)cc2)cc1[N+](=O)[O-] [4-(4-benzylpiperazin-1-yl)-N-[(4-{[(2R)-4-(dimethylamino)-1-(phenylsulfanyl)butan-2-yl]amino}-3-nitrobenzene)sulfonyl]benzamide]
> 50000	CN(C)CC[C@H](CSc1ccccc1)Nc1ccc(S(=O)(=O)NC(=O)c2ccc(N3CCN(C(=O)Nc4ccccc4)CC3)cc2)cc1[N+](=O)[O-] [4-(4-{[(4-{[(2R)-4-(dimethylamino)-1-(phenylsulfanyl)butan-2-yl]amino}-3-nitrobenzene)sulfonyl]carbamoyl}phenyl)-N-phenylpiperazine-1-carboxamide]
> 20000	CC1OC2(CCN(c3ccc(C(=O)NS(=O)(=O)c4ccc(N[C@H](CCN(C)C)CSc5ccccc5)c([N+](=O)[O-])c4)cc3)CC2)N(Cc2ccccc2)C1=O (stereo partly drawn) [4-{4-benzyl-2-methyl-3-oxo-1-oxa-4,8-diazaspiro[4.5]decan-8-yl}-N-[(4-{[(2R)-4-(dimethylamino)-1-(phenylsulfanyl)butan-2-yl]amino}-3-nitrobenzene)sulfonyl]benzamide]
